Reference: patent US20250189516A1, “PHOSPHORYLATION OF P53 AS A PROGNOSTIC OR DIAGNOSTIC MARKER FOR THE TREATMENT OF SENESCENT CELLS IN A MAMMAL” (CLEARA BIOTECH B.V., priority 2022, published 2025)
Square brackets hold non-standard residues; d marks the D form. Ends that are not written are not given here.

Experiments:
[1] = system: CRC29 colorectal cancer organoid line, liver metastases; assay: Colorectal cancer organoid CRC29 caecum implant model, liver metastasis (FIG. 9); assay type: in vivo, immunodeficient mice; conditions: 50 mg/kg 5-FU, 3 doses of 2.5 mg/kg CL04183, versus PBS
Description: The colorectal cancer organoid line CRC29 was implanted in the caecum of immunodeficient mice. Two weeks after transplantation the animals were treated with either ‘5-Fluorouracil (5-FU) or PBS. […] A) The livers were stained for KU80 or human nucleoli to detect human cancer cells in the mouse organs, together with p-p53 (T55) or PML. B) The number of liver metastases per stained section was counted by eye.
Mouse experiments were performed after approval from the Dutch animal ethics committee (WP number 9124-1-03). NOD.Cg-Prkdcscid Il2rgtm1Wjl/SzJ/J mice were purchased from Charles River and maintained in a pathogen-free environment. The animals were anaesthetized using 75 mg/kg ketamine and 0.5 mg/kg dexmedetomidine injected i.p., while 5 mg/kg carprofen was injected s.c. as analgesia. Subsequently, CRC29 organoids (250000 cells) containing a firefly luciferase construct were transplanted into the caecum in a 10 μl collagen droplet. Two weeks after tumor cell implatation the animals were treated with either 50 mg/kg ‘5-Fluorouracil (5-FU) or PBS. […] Four weeks after transplantation, the mice were sacrificed, and tissues were collected for further processing.

[2] = system: human breast cancer cell lines; assay: MTS viability assay in human breast cancer cell lines versus number of PML bodies (FIG. 7); assay type: cell-based
Description: Spearman's rank correlation coefficient (0.93) given; B) Correlation of open P53 (Pab240 clone) and P53 pSer392 (EP155Y clone) staining in a panel of eight human breast cancer lines including luminal, Her2 positive and triple-negative. Spearman's rank correlation coefficient (0.88) given; and C) Association between PML body count/nuclear pixel (to correct for variation in nucleus size between lines) and nuclear P53 pSer392 staining intensity in eight human breast cancer lines plotted against the effective dose inducing cell death in 50% of the population (ED50, as measured by MTS assay) after treatment with CL04177 for these cell lines. Sensitive cell lines are highlighted by the box.
To study the selectivity of different therapies for cancer cells, colorimetric-based cytotoxicity assays were performed two days following treatments. […] The resulting colorimetric reactions were read at 490 nm on a Microplate Absorbance Reader. Relative survival was determined by normalization of the results to Mock (=100% alive). […]
Six days after treatment, cells were incubated with 10 μl CellTiter 96® AQueous One Solution Cell Proliferation Assay (Promega) for 1 hour at 37° C. to perform an MTS assay. Subsequently, absorbance was measured at 490 nm using a Spectramax M5e.

[3] = system: MDA-MB-231 firefly luciferase-containing cells, metastases; assay: Anti-metastatic activity in vivo in an orthotopic TNBC model (FIG. 8); design: species or system NSG mice
Description: PBS-treated mice developed metastatic growth visible by bioluminescence.
Approval for this study was obtained by the local University Animal Experimental Committee at the University Medical Center Utrecht (IVD-UMC; WP numbers 9124-1-02 and −05). MDA-MB-231 firefly luciferase-containing cells were transplanted orthotopically into the exposed inguinal mammary fat pad as single cells at a density of 1 millionn cells in 50 ul of a medium into NSG mice (NOD.Cg-PrkdcIL2rgmWij/Szj) (stock 005557). Carprofen was injected s.c. as analgesia following the surgery. Animals were purchased from Charles River and maintained in a pathogen-free environment.
Tumor growth dynamics were quantified in mice with established tumors (>50 mm3). […] After 2 weeks of recovery, mice were sacrificed. For in vivo dosing, the peptides were dissolved in PBS. We used 11 mice per group that were randomly assigned to the different treatment groups before the start of the experiment.
To visualize tumor burden in a live mouse, mice were injected with luciferin substrate i.p. at 150 mg/kg, and imaged under isoflurane anesthesia 15 min later using a bioluminescence imager. The M3Vision software was used to analyze the bioluminescence signal by taking a region of interest (ROI) around the primary tumor to evaluate the BL signal from the tumor or around the upper abdomen and chest of the mouse to evaluate the signal from metastases. The signal was measured in photons/s/cm2.

[4] = system: triple-negative breast cancer cell line MDAMB231; assay: Immunofluorescence of MDAMB231 cells surviving the LD50 dose (FIG. 13); assay type: cell-based, human; conditions: staining two days later, survivors have low PML and p53 (S392)
Description: A) The triple-negative breast cancer cell line MDAMB231 was treated with the LD50 dose, determined in previous assays. Two days later, an immunofluorescence staining was performed for the indicated proteins. B) Therapy-survivors are made up primarily of cells with low levels of these proteins.
(§1) To study the selectivity of different therapies for cancer cells, colorimetric-based cytotoxicity assays were performed two days following treatments. Cells from several different cancer types (breast, ovarian, pancreas, gastric lung and liver cancer) were cultured in 96-wells plates with 4000 cells per well. These were treated with a serial dilution of compounds in triplicates and mock-treatments ([…], since peptides were dissolved therein). The AQeousOne Solution Cell Proliferation Assay Kit was used to assess cell viability, according to the manufacturer's instructions. In short, the old medium was removed and 100 μl of fresh medium and 10 μl of CellTiter AQueousOne solution were added to each well. The plates were incubated for 1 hour at 37° C. The resulting colorimetric reactions were read at 490 nm on a Microplate Absorbance Reader. Relative survival was determined by normalization of the results to Mock (=100% alive). […]

[5] = system: cancer cell lines with wildtype or "open" p53 conformation; assay: Viability curves / ED50 in cell lines from several types of cancer by p53 conformation (FIG. 14); assay type: cell-based; conditions: cancers with genetic mutations in p53, versus wildtype p53 conformation
Description: FIG. 14 The CL04177 peptide targets cells from multiple types of cancer, with a higher selectivity towards cell lines that are genetically predisposed towards expressing p53 in its “open” conformation through TP53 mutations. Viability curves exemplifying the response to the peptide for two cell lines, A) A2780 that has a wildtype p53 conformation and B) H23, which contains p53 with an “open” conformation based on genetic mutations in p53.
as §1

[6] = biological target: p53-TAD2 phosphorylated at T55 or S46 (Homo sapiens, UniProt P04637); assay: Fluorescence anisotropy binding assay with FITC-labelled p53 peptides (FIG. 3); conditions: versus non-phosphorylated p53-TAD2
p53-TAD2 phosphorylated at T55 or S46, sequence (P04637 37-57 limits assumed): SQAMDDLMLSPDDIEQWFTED
Description: Data was acquired on a ClarioStar Plus plate reader. Endpoint measurement with 200 flashes per well were performed. An excitation filter with 482 nm wavelength and emission filter with 530 nm were used and gain adjustment as well as focal height adjustment were performed for each measurement. Fluorescence intensity, parallel fluorescence polarization and perpendicular fluorescence polarization were recorded. Data analysis was performed using MARS Version 3.4 (BMG), Microsoft Excel and GraphPad Prism Version 8.
For measurements, 116 μl of a solution of the specific Cleara peptides (ranging from 1 to 100 μM) were prepared. Subsequently 4 μl of FITC-labelled p53 peptides (stock concentration 15 μM, resulting in a final concentration of 500 nM) were added. 35 μl were then transferred in each well of the 384-well plate. Measurements were performed in triplicates. If necessary, this setup was extended with lower concentrations in order to cover strong interactions.
The anisotropy (r) is defined as the ratio of the polarized component to the total intensity (IT):
where the excitation is polarized along the z-axis, emission from the fluorophore is symmetric around the z-axis, so Ix=Iy and […], resulting in:
The obtained anisotropy values for each concentration of CL peptide can be used to determine the binding affinity, by applying following fitting function: […]

[7] = daily s.c. for one week, 2.5 mg/kg CL04183, 10 mg/kg CL04177, versus PBS

Molecule: O=c1[nH]cc(F)c(=O)[nH]1 [5-FU, 5-Fluorouracil]
- effect on liver metastases [1]: specifically counteract liver metastases

Molecule: RKKASSKIEAEILDAFSQNWRRKRPPRRRQRRKKRG ([dR][dK][dK][dA][dS][dS][dK][dI][dE][dA][dE][dI][dL][dD][dA][dF][dS][dQ][dN][dW][dR][dR][dK][dR][dP][dP][dR][dR][dR][dQ][dR][dR][dK][dK][dR]G; listed as Homo sapiens) [CL04177, retro-inverso peptide derived from human FOXO4]
- sensitivity of cell lines to the peptide ([2]; breast cancer lines with few PML bodies): less sensitive
- sensitivity of cell lines to the peptide ([2]; triple-negative lines with high levels of PML bodies): highly sensitive
- effect on liver metastases ([3]; FIG. 8): specifically counteract liver metastases
- incidence of liver metastasis (bioluminescence of tumor cells in the extracted livers) [3, 7]: decreased the incidence of liver metastasis
- incidence of visible metastasis (bioluminescence) [3, 7]: decreased the incidence of visible metastasis
- cell population targeted [4]: targets cells with increased PML bodies and phosphorylated p53
- sensitivity (ED50s) of cancers predisposed towards "open" p53 [5]: more sensitive

B1: FOXO4: fragment of human FOXO4 (Uniprot ID P98177) from amino acid 86 to 207, recombinant forkhead domain (protein)
chain: GAVTGPRKGGSRRNAWGNQSYAELISQAIESAPEKRLTLAQIYEWMVRTVPYFKDKGDSNSSAGWKNSIRHNLSLHSKFIKVHNEATGKSSWWMLNPEGGKSGKAPRRRAASMDSSSKLLRG
- affinity to p53-TAD2 when phosphorylated at T55 or S46 [6]: substantially higher affinity
